Measurements: publication PMC9772252 (Cell chemical biology, 2022)

Target: T1, GPX4 (glutathione peroxidase 4) (Homo sapiens, UniProt P36969, U73C)
T1 sequence (P36969 33-197 U73C): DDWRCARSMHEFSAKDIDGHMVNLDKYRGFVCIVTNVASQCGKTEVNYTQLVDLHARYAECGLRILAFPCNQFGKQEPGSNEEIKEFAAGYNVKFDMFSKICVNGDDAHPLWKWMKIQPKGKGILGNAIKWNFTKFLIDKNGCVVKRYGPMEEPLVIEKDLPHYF
Experiment: SPR
Format: binding

COC(=O)c1ccc([C@H]2c3[nH]c4ccccc4c3C[C@H](C(=O)OC)N2C(C)=O)cc1 [RSL3-minus-Cl, Methyl (1S,3R)-2-acetyl-1-(4-(methoxycarbonyl)phenyl)-2,3,4,9-tetrahydro-1H-pyrido[3,4-b] indole-3-carboxylate]
Kd: 60 µM
